Source: patent US20210205389A1, “METHODS AND COMPOSITIONS FOR TREATING NON-SMALL CELL LUNG CANCER” (Chang Gung Medical Foundation Keelung Chang Gung Memorial …, priority 2015, published 2021)

What was measured:
[1] = system: CL97 (gefitinib resistance cell line) xenograft; assay: CL97 xenograft tumor study; assay type: in vivo, NOD/SCID mice; details: oral; Gefitinib 100 mg/kg 2 times/week; C1 1 g/kg, C2 600 mg/kg, C3 150 mg/kg 5 days/week; 10 weeks
Description: Human lung cancer cell line CL97 (obtained from Dr. Pan-Chyr Yang's lab, 1 million cells/injection) were subcutaneously injected into the right flank of NOD/SCID mice (female, 4-6 weeks old) and allowed one-two week for tumor growth. […] Over the period of 10 weeks, tumorigenesis in both groups was measured using a caliper on a weekly basis. The change in tumor size was expressed as in fold change and plotted over time.

HUVEC cells = assay: Tube formation assay; assay type: cell-based; details: sorafenib 10 μM (positive control)
Description: Tube formation assay was used to test the inhibitory effect of Composition 3 (400 and 600 μg/ml) in HUVEC cells. Treatment of sorafenib was used as a positive control. […] All samples were assayed in triplicate. Four images were taken per well of a 96-well plate at 10×. The data were quantitated by calculating the pentagonal ring or hexagonal ring loop numbers of each well and used solvent control (DMSO) as 100%.
In addition to the study of the immune modulator role of Composition 3, whether Composition 3 might affect angiogenesis was also studied. To investigate the anti-angiogenesis ability of Composition 3, the effect of Composition 3 on HUVEC cells tube formation was first tested. In the normal condition, HUVEC cells will arrange into pentagon or hexagon shape in matrigel to form a tube.

COc1cc2ncnc(Nc3ccc(F)c(Cl)c3)c2cc1OCCCN1CCOCC1 [Gefitinib]
Tumor reduction (%) [1]: 8.8%

CNC(=O)c1cc(Oc2ccc(NC(=O)Nc3ccc(Cl)c(C(F)(F)F)c3)cc2)ccn1 [sorafenib]
number of complete pentagon or hexagon tube (HUVEC cells): significant decreased
